This note sets out measurements from paper PMC8187479, “Sugar phosphate activation of the stress sensor eIF2B” (Nature Communications, 2021).

This experiment deals with T1, eIF2Bα (Homo sapiens, UniProt Q14232).
T1 construct: made in house; host or cells: E. coli BL21(DE3)
T1 sequence (Q14232 1-305): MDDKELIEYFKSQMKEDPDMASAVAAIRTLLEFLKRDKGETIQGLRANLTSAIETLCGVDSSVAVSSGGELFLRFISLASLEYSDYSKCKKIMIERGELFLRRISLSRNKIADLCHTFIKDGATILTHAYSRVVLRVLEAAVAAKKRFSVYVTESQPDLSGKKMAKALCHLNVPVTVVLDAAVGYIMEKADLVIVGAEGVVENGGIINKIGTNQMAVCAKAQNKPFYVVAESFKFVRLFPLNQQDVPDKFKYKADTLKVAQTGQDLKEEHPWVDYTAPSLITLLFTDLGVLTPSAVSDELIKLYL
Description: MIDAS (mass spectrometry integrated with equilibrium dialysis) metabolite binding screen. On the procedure:
Metabolites were combined into four defined screening pools. […] To the reverse side, 300 μL of 50 μM per metabolite pool was aliquoted and sealed (metabolite chamber). Loaded dialysis plates were placed in the dark at 4 °C on a rotating shaker (120 rpm) and incubated for 40 h. Post-dialysis, metabolites were isolated from each chamber by cold methanol extraction. Each sample was analyzed in technical triplicate by FIA-MS on a SCIEX X500R QTOF MS with interspersed blanks injections. The input metabolite pools were assayed at the beginning, middle, and end of each MS method batch for QC and normalization.
MIDAS FIA-MS spectra were processed in SCIEX OS 1.6 software to determine metabolite abundances by integrating the mean area under the curve for each extracted ion chromatogram. For each dialysis replicate, log2(fold change) for each metabolite was calculated as the difference between the log2 abundance in the protein chamber and metabolite chamber. For each technical triplicate, up to one outlier was removed using a z-score cutoff of five (<0.1% of observations). The corrected technical replicates were collapsed to one mean fold-change summary per protein-metabolite pair. To remove fold-change variation that was not specific to a given metabolite-protein pair, the first three principal components of the total screening dataset were removed on a per metabolite pool basis by subtracting the projection of the first 3 principal components, creating log2(corrected fold change). Protein-metabolite z-scores were determined by comparing the target protein-metabolite log2(corrected fold change) to a no-signal model for that metabolite using measures of the central tendency (median) and standard deviation (extrapolated from the 25–75% quantiles), which are robust to the signals in the tails of a metabolite’s fold-change distribution. Z-scores were false-discovery rate controlled using Storey’s q-value (qvalue, R) and protein-metabolite interactions with q-values < 0.1 were considered significant.

[1] abbreviates: MIDAS metabolite binding screen with eIF2Bα, sheet "eIF2Ba".
Where [2] appears, read: MIDAS screen, sheet eIF2Ba, metabolites screened in pools 1-4, p-value and q-value given.

Read-outs that look alike come from different tables or passages of the source.

In the case of `NC(CP(=O)(O)O)C(=O)O` (racemic) [DL-2-Amino-3-phosphonopropionic acid], the “log2(corrected fold change)” value under setting [1] is -0.05707.
For the molecule `O=c1[nH]c(=O)c2[nH]c(=O)[nH]c2[nH]1` [Uric acid], under setting [2], the “log2(corrected fold change)” value is -0.09817.
For the molecule `Nc1ncnc2c1ncn2[C@H]1C[C@H](O)[C@@H](COP(=O)(O)O)O1` [Deoxyadenosine monophosphate], the “log2(corrected fold change)” value under setting [1] is given as -0.0746.
`CCC(CO)C(=O)O` (centres unmarked) [2-(Hydroxymethyl)butanoic acid]: under setting [2], the “log2(corrected fold change)” value came to 0.09429.
The same measure, in the same setting: under `O=P(O)(O)OC[C@H]1OC(O)(CO)[C@@H](O)[C@@H]1O` (stereo partly drawn) [D-Fructose 6-phosphate] stands -0.1344; under `C[C@@H](CO)C(=O)O` [(S)-Hydroxyisobutyrate], 0.07137.
For the molecule `CC(=O)N[C@H]1[C@H]([C@H](O)[C@H](O)CO)OC(O)(C(=O)O)C[C@@H]1O` (some centres unmarked) [N-Acetylneuraminic acid], the “log2(corrected fold change)” value under setting [1] is recorded as -0.0313.
The same measure, in the same setting: the value for `O=P(O)(O)OCC1OC(OP(=O)(O)OP(=O)(O)O)C(O)C1O` [5-Phospho-D-ribose 1-diphosphate] was 0.1645.
Same read-out and setting: the value for `CC(C)C[C@H](N)C(=O)O` [L-Leucine] was -0.00688.
Same read-out and setting: the value for `Cc1ncc(C[n+]2csc(CCO[P@](=O)(O)OP(=O)(O)O)c2C)c(N)n1` [Thiamine pyrophosphate] was -0.008195.
Regarding `Nc1ccn([C@@H]2O[C@H](COP(=O)(O)OP(=O)(O)O)[C@@H](O)[C@H]2O)c(=O)n1` [Cytidine 5-diphosphate], under setting [1], the “log2(corrected fold change)” value stood at 0.02612.
Regarding `CC(=O)CC(=O)SCCNC(=O)CCNC(=O)[C@H](O)C(C)(C)COP(=O)(O)OP(=O)(O)OC[C@H]1O[C@@H](n2cnc3c(N)ncnc32)[C@H](O)[C@@H]1OP(=O)(O)O` [Acetoacetyl coenzyme A], the “log2(corrected fold change)” value under setting [2] stood at 0.4297.
`CN1c2c(nc(N)[nH]c2=O)NCC1CNc1ccc(C(=O)N[C@@H](CCC(=O)O)C(=O)O)cc1` (some centres unmarked) [5-Methyltetrahydrofolic acid]: under setting [1], the “log2(corrected fold change)” value is recorded as 0.02128.
On the same count and under the same terms, under `O=C1O[C@H]([C@@H](O)CO)C(O)=C1O` [Ascorbate] stands 0.01654; under `CC(C)C[C@@H](O)C(=O)O` [D-Leucic acid], -0.0302.
The same measure, in the same setting: under `CC(=O)N[C@@H](CCC(=O)O)C(=O)O` [N-Acetyl-L-glutamic acid] stands 0.006675.
Turning to `CCCCC[C@H](O)/C=C/[C@H]1C(=O)C[C@H](O)[C@@H]1C/C=C\CCCC(=O)O` [Prostaglandin D2], the “log2(corrected fold change)” value under setting [2] is on record as 0.05625.
Turning to Orotidine 5-monophosphate, the “log2(corrected fold change)” value is given as 0.07073.
In the case of `O=C(O)C(O)c1ccc(O)c(O)c1` (racemic) [DL-3,4-Dihydroxymandelic acid], the “log2(corrected fold change)” value under setting [1] is listed as -0.05412.
Regarding `O=c1ccn([C@@H]2O[C@H](COP(=O)(O)OP(=O)(O)O)[C@@H](O)[C@H]2O)c(=O)[nH]1` [Uridine 5-diphosphate], under setting [2], the “log2(corrected fold change)” value is listed as -0.03147.
Same read-out and setting: the value for `Nc1nc2nc[nH]c2c(=O)[nH]1` [Guanine] was 0.2851.
In the case of `O=c1ccn([C@H]2C[C@H](O)[C@@H](CO)O2)c(=O)[nH]1` [2-Deoxyuridine], the “log2(corrected fold change)” value under setting [1] amounted to 0.04824.
Consider `NCCc1ccc(O)cc1` [Tyramine], for which the “log2(corrected fold change)” value under setting [2] is reported as 0.3274.
Consider `Cc1cc2nc3c(=O)[nH]c(=O)nc-3n(C[C@H](O)[C@H](O)[C@H](O)COP(=O)(O)O)c2cc1C` [Riboflavin 5-monophosphate], for which, under setting [1], the “log2(corrected fold change)” value is on record as 0.06004.
Same read-out and setting: under `O=C(O)CCC(=O)O` [Succinic acid] stands -0.05121.
Still for that read-out and setting: under `Nc1nc2c(ncn2[C@H]2C[C@H](O)[C@@H](COP(=O)(O)OP(=O)(O)OP(=O)(O)O)O2)c(=O)[nH]1` [2-Deoxyguanosine 5-triphosphate] stands 0.05437.
In the case of `O=P(O)(O)O[C@H]1O[C@H](CO)[C@H](O)[C@H](O)[C@H]1O` [D-Galactose 1-phosphate], the “log2(corrected fold change)” value under setting [2] is given as -0.1344.
On to `CC(=O)CC(=O)CCC(=O)O` [4,6-Dioxoheptanoic acid], for which, under setting [1], the “log2(corrected fold change)” value was -0.02657.
For the molecule `C[C@@H](O)C(=O)SC[C@H](NC(=O)CC[C@H](N)C(=O)O)C(=O)NCC(=O)O` [S-Lactoylglutathione], the “log2(corrected fold change)” value under setting [1] was -0.04124.
As to `Cc1ncc(COP(=O)(O)O)c(C=O)c1O` [Pyridoxal 5-phosphate], under setting [1], the “log2(corrected fold change)” value came to 0.1983.
The same measure, in the same setting: the value for `O=C(O)CCC(=O)C(=O)O` [Ketoglutaric acid] was 0.06742; that for `Nc1ccn([C@@H]2O[C@H](COP(=O)(O)OP(=O)(O)OCC(O)CO)[C@@H](O)[C@H]2O)c(=O)n1` (some centres unmarked) [CDP-Glycerol] was 0.002705; that for `Nc1ncnc2c1ncn2[C@@H]1O[C@H](COP(=O)(O)OS(=O)(=O)O)[C@@H](OP(=O)(O)O)[C@H]1O` [3-Phosphoadenosine 5-phosphosulfate] was -0.003179.
As to `OC[C@H]1O[C@H](OC[C@H]2OC(O)[C@H](O)[C@@H](O)[C@@H]2O)[C@H](O)[C@@H](O)[C@@H]1O` (some centres unmarked) [Isomaltose], the “log2(corrected fold change)” value under setting [2] is -0.3372.
On the same count and under the same terms, under `O=C(O)Cc1ccccc1O` [2-Hydroxyphenylacetic acid] stands -0.07366.
Regarding `O=C(O)CO` [Glycolic acid], the “log2(corrected fold change)” value under setting [1] is recorded as -0.06864.
Still for that read-out and setting: the value for `O=C(O)CNC(=O)Cc1ccc(O)cc1` [4-Hydroxyphenylacetylglycine] was -0.008576.
`O=C(O)C(=O)Cc1ccccc1` [Phenylpyruvate]: the “log2(corrected fold change)” value under setting [2] worked out at 0.02641.
As to `CC(C)C(=O)NCC(=O)O` [Isobutyrylglycine], under setting [2], the “log2(corrected fold change)” value is reported as -0.09012.
On the same count and under the same terms, under `Nc1nc2c(ncn2[C@@H]2O[C@H](COP(=O)(O)O)[C@@H](O)[C@H]2O)c(=O)[nH]1` [Guanosine 5-monophosphate] stands 1.415; under `NCCCC[C@H](N)C(=O)O` [L-Lysine], -0.06897; under `CC(=O)CC(=O)O` [Acetoacetate], -0.05529.
For the molecule `OC[C@H]1O[C@@](CO)(O[C@H]2O[C@H](CO)[C@@H](O)[C@H](O)[C@H]2O)[C@@H](O)[C@@H]1O` [Sucrose], the “log2(corrected fold change)” value under setting [2] is given as -0.3372.
For the molecule `N[C@@H](Cc1ccc(O)c(O)c1)C(=O)O` [3,4-Dihydroxy-L-phenylalanine], the “log2(corrected fold change)” value under setting [2] is given as 0.5098.
Same read-out and setting: the value for `N[C@H]1C(O)O[C@H](CO)[C@@H](O)[C@@H]1O` (stereo partly drawn) [D-Glucosamine] was 0.1378; that for `O=c1[nH]c(=O)c2nc[nH]c2[nH]1` [Xanthine] was -0.1163.
Still for that read-out and setting: the value for `O=C(O)[C@H]1CCCN1` [D-Proline] was -0.05584.
Regarding `O=C(CO)[C@@H](O)[C@H](O)COP(=O)(O)O` [D-Xylulose 5-phosphate], under setting [2], the “log2(corrected fold change)” value came out at 0.3189.
`N[C@@H](CO)C(=O)O` [L-Serine]: under setting [1], the “log2(corrected fold change)” value is listed as -0.04824.
Turning to `O=C(O)[C@@H]1CCCN1` [L-Proline], the “log2(corrected fold change)” value under setting [2] is -0.05584.
For the molecule `O=C(O)C[C@H](O)C(=O)O` [L-Malic acid], the “log2(corrected fold change)” value under setting [1] is -0.01079.
For `N[C@@H](CCC(=O)O)C(=O)O` [L-Glutamic acid], the “log2(corrected fold change)” value under setting [2] is reported as -0.006334.
`CC(C)C(=O)C(=O)O` [3-methyl-2-oxobutyrate]: the “log2(corrected fold change)” value under setting [1] is reported as -0.0499.
Still for that read-out and setting: the value for `NC(=O)c1ccc[n+]([C@@H]2O[C@H](COP(=O)([O-])OP(=O)(O)OC[C@H]3O[C@@H](n4cnc5c(N)ncnc54)[C@H](OP(=O)(O)O)[C@@H]3O)[C@@H](O)[C@H]2O)c1` [NADP] was 0.02005.
With `O=C(O)CCCc1ccccc1` [4-Phenylbutanoic acid], the “log2(corrected fold change)” value under setting [2] is given as 0.03839.
Same read-out and setting: under `O=c1[nH]cnc2nc[nH]c12` [Hypoxanthine] stands 0.136; under `O=C1OC[C@@H](O)[C@H]1O` [D-Erythrono-1,4-lactone], -0.2396.
Same read-out and setting: under `O=C[C@H](O)COP(=O)(O)O` [D-Glyceraldehyde 3-phosphate] stands 0.09175; under `CC(=O)O[C@H](CC(=O)[O-])C[N+](C)(C)C` [O-Acetyl-L-carnitine], -0.03661.
